According to patent US7777073B2, “Topical delivery system for antiaging and skin whitening agents” (Bioderm Research, priority 2004, dated 2010):
“Also recorded” adds a separate entry of the source. Where two headings read alike, the source gives them in different places. One block for each compound: values may come before it.

How the values were obtained:
MMP-2 = biological target: T1, MMP-2 (Homo sapiens, UniProt P08253); experiment: In vitro inhibition of MMP-2 (Biomol assay kit); format: biochemical; settings: read-out: 50% Inhibition Concentration MMP-2 (converted)
T1 construct: purchased Biomol Corporation
From the text: (§1) In vitro specific inhibition of MMP-2 and MMP-9 activity by [R]-(N-[(2,4-dihydroxyphenyl)ethyl]glycine and [S]-N-[(2,4-dihydroxyphenyl)ethyl]glycine was estimated with assay kits from Biomol Corporation. Recombinant human MMP-1 enzyme was obtained from R&D Systems. The enzyme was first activated with APMA according to the protocol provided by R&D Systems. The experimental conditions for the screening of MMP-1 inhibitors were similar to the settings used for MMP-2 and MMP-9 testing.
(§2) In vitro inhibition of MMP1, 2 and 9 for several samples (mcg=micro-grams).

[1] = biological target: T2, Recombinant human MMP-1 enzyme (Homo sapiens, UniProt P03956); experiment: In vitro inhibition of MMP-1; format: biochemical; settings: enzyme activated with APMA, read-out: 50% Inhibition Concentration MMP-1 (converted)
T2 construct: purchased R&D Systems
T2 sequence (P03956 100-469): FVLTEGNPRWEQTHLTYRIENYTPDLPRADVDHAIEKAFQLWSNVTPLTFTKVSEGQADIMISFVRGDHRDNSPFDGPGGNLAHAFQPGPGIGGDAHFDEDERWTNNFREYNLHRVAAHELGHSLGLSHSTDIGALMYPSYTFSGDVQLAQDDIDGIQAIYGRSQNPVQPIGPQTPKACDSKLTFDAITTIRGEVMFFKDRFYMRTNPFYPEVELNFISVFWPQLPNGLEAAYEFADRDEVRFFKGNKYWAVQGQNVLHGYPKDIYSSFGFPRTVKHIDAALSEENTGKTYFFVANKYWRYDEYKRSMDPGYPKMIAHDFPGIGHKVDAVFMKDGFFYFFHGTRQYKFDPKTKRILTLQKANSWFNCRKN
From the text: as §1, §2

skin = experiment: Differences in antiaging and skin whitening affect of [S] and [R] isomers
mushroom tyrosinase = experiment: Inhibition of tyrosinase, kinetic analysis; format: biochemical; settings: for IC50: 20 C, phosphate buffer 100 mM, pH 6.8, read-out: Tyrosinase Inhibitory Concentration
Procedure: Method. Kinetic analysis of 2,4 DHA inhibition.
All reactions were performed at 20 C, in phosphate buffer 100 mM, pH 6.8, mushroom tyrosinase.

Matrix metalloproteases = experiment: In vitro inhibition of Matrix metalloproteases, overall assessment; format: biochemical
From the text: as §1

MMP-9 = biological target: T3, MMP-9 (Homo sapiens, UniProt P14780); experiment: In vitro inhibition of MMP-9 (Biomol assay kit); format: biochemical; settings: read-out: 50% Inhibition Concentration MMP-9 (converted)
T3 construct: purchased Biomol Corporation
From the text: as §1, §2

T1 sequence (P08253 110-452 limits assumed, species assumed): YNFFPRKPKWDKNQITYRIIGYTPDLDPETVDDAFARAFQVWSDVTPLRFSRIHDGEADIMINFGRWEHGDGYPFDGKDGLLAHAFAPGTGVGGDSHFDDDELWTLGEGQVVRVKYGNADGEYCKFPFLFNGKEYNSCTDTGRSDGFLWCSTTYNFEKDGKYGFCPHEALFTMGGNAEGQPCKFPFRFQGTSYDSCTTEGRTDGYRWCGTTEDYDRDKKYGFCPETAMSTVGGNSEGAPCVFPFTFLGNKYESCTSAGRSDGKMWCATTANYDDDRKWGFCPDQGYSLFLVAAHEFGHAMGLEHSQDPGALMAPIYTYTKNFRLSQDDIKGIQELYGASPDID
T3 sequence (P14780 107-444 limits assumed, species assumed): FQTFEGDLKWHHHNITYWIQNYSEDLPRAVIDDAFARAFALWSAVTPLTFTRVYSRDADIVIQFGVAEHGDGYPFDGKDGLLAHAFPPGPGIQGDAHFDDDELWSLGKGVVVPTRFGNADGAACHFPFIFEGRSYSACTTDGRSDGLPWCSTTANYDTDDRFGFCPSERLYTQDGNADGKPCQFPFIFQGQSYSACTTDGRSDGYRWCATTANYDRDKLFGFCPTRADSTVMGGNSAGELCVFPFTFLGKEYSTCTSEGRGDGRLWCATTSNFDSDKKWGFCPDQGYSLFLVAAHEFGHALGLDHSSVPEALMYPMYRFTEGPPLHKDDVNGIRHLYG

Compound: C[C@H](NCC(=O)O)c1ccc(O)cc1O [[S]-N-[(2,4-dihydroxyphenyl)ethyl]glycine]
IC50 (MMP-2): 189 µM | IC50 [1]: 166 µM | Antiwrinkle properties, [S] versus [R] isomer (skin): better antiwrinkle properties | Tyrosinase inhibition (in words) (mushroom tyrosinase): anti-tyrosinase activity; also recorded: excellent inhibitor | IC50 (mushroom tyrosinase): 10000 µM | MMP inhibition (in words) (Matrix metalloproteases; MMP1, 2 and 9): MMP inhibition; also recorded: just a bit weaker, but still quite acceptable | IC50 (MMP-9): 284 µM

IC50 (mushroom tyrosinase): 25000 µM
Compound: OC[C@H]1O[C@@H](Oc2ccc(O)cc2)[C@H](O)[C@@H](O)[C@@H]1O [Arbutin, reference compound]

Compound: C[C@@H](NCC(=O)O)c1ccc(O)cc1O
IC50 (MMP-2): 71 µM | IC50 [1]: 94.7 µM | Skin whitening benefits, [R] versus [S] isomer (skin): better skin whitening benefits | Tyrosinase inhibition (in words) (mushroom tyrosinase): excellent inhibitor | IC50 (mushroom tyrosinase): 5000 µM | Tyrosinase inhibition (in words) (mushroom tyrosinase; listed as [R]-(N-[(2,4-dihydroxyphenyl)ethyl]glycine)): anti-tyrosinase activity | MMP inhibition (in words) (Matrix metalloproteases; MMP1, 2 and 9): very good and general inhibition | MMP inhibition (in words) (Matrix metalloproteases; MMP1, 2 and 9, listed as [R]-(N-[(2,4-dihydroxyphenyl)ethyl]glycine)): MMP inhibition | IC50 (MMP-9): 94.7 µM
